From US20140039044A1, “Hydroxylated Polymethoxyflavone Compositions” (WLLGEN, INC., priority 2006, published 2014)
Where two headings read alike, the source gives them in different places.

How the values were obtained:
Assay type in all cases: cell-based, human
[1] = system: HL-60 cells; assay: Cell survival assay (antiproliferative IC50); details: Homo sapiens
Protocol: (§1) Human colon carcinoma COLO205 and HT-29 cell lines (American Type Culture Collection (ATTC), Manassas, Va.) and the leukemia cell line HL-60 were maintained at 37° C. in 5% CO2 air in RPMI 1640 medium supplemented with 10% heat-inactivated fetal bovine serum (Gibco BRL, Grand Island, N.Y.), 100 units/mL penicillin, 100 μg/mL streptomycin and 2 mM 1-glutamine. The human gastric carcinoma AGS cell line (CCRC 60102), obtained from the Food Industry Research and Development Institute (Hsinchu, Taiwan), was maintained as described above, except that DMEM/F 12 was used as the medium rather than the RPMI 1640 medium. The human breast carcinoma MCF-7 cell line MCF-7 (ATTC) was cultured in RPMI 1640 medium supplemented with 5% fetal calf serum at 37° C. in a humidified atmosphere of 5% CO2 in air. The mouse macrophage cell line RAW 264.7 was maintained in RPMI 1640 supplemented with 100 U/ml penicillin, 100 μg/ml streptomycin, and 10% heat-inactivated fetal calf serum.
(§2) Cancer cells (2×10^5) were plated in 12-well Petri dishes. The next day, the medium was changed and treated with different concentration of the test compounds or compositions for 24 h. Where individual compounds were to be tested, stock solutions of the compound was prepared to contain 200 μM of the individual hydroxylated or non-hydroxylated PMF in dimethylsulfoxide (DMSO). Control cells were treated with DMSO to a final concentration of 0.05% (v/v). Depending on the objective of the particular experiment, cells were treating with test compound or composition for 1, 3 or 6 days. At the end of incubation, cells were harvested for cell count using a hemocytometer and measuring the cellular total nucleic acid content with the CyQUANT Cell Proliferation Assay Kit (Molecular Probes).
(§3) 1 N PMF and 6 N PMF compositions containing hydroxylated PMFs, prepared as described in Section 8.3 above, 70% PMF OPE and 5,6,7,8,3′,4′-hexamethoxyflavone (nobiletin) were tested for antiproliferative activity and apoptosis-inducing activity in HL-60, AGS and COLO205 cells as described in Section 8.4 above. Antiproliferative and apoptosis-inducing activities were derived as IC50 values and AC50, values, respectively, where AC50 is the concentration required for 50% apoptosis.
(§4) The PMF compounds were assayed in vitro for cell growth inhibition and for their ability to induce apoptosis in various human cancer cells, including HL-60, AGS, COLO 205, and HT-29 cells, using methods described in Section 8.4 above. Antiproliferative (IC50) and apoptosis-inducing activity (AC50) of PMFs in the HL-60, AGS, COLO 205, and HT-29 cells are reported in Table 9, where *P<0.05, **P<0.01 and ***P<0.001 indicate statistically significant differences from the control group.

[2] = system: COLO205 cells; assay: Cell survival assay (antiproliferative IC50); details: Homo sapiens
Protocol: as §1, §2, §3, §4

[3] = system: AGS cells; assay: Cell survival assay (antiproliferative IC50); details: Homo sapiens, read-out: Antiproliferative IC50
Protocol: as §1, §2, §3, §4

[4] = system: HT-29 cells; assay: Cell cycle distribution by flow cytometry; details: for Cell Cycle Distribution G0/G1 / Cell Cycle Distribution G2/M / Cell Cycle Distribution S: 24 h
Protocol: (§5) The human cancer cells (2×10^5) were cultured in 60-mm Petri dishes and incubated for 24 h. After treated with test compounds for 24 h, the cells were then harvested, washed with PBS resuspended in 200 μL of PBS, and fixed in 800 μL of iced 100% ethanol at −20° C. After being left to stand overnight, the cell pellets were collected by centrifugation, resuspended in 1 mL of hypotonic buffer (0.5% Triton X-100 in PBS and 0.5 μg/mL RNase) and incubated at 37° C. for 30 min. Next, 1 mL of propidium iodide solution (50 μg/mL) was added, and the mixture was allowed to stand on ice for 30 min. Fluorescence emitted from the propidium iodide-DNA complex was quantitated after excitation of the fluorescent dye by FACScan cytometry (Becton Dickinson, San Jose, Calif.).
(§6) Compounds A-K were evaluated in terms of their effects in arresting cell cycle progression by observing cell cycle phase distribution in cells treated with the compounds. Cells were treated with 5, 10, 25, 50, and 100 μM of one of compound A-K or DMSO (control) for 24 h and subjected to flow cytometric analysis after staining their DNA, as described above.
(§7) Similar cell cycle phase distribution studies were performed in AGS, COLO205, and HT-29 cells in response to individual PMFs, with results reported in Tables 11, 12 and 13, respectively.

[5] = system: COLO205 cells; assay: Cell cycle distribution by flow cytometry; details: COLO205 cells; for Cell Cycle Distribution G0/G1 / Cell Cycle Distribution G2/M / Cell Cycle Distribution S: 24 h, Table 12
Protocol: as §5
(§8) The effects of the hydrolyzed PMF-enriched compositions, nobiletin and 70% PMF OPE on cell cycle distribution were studied, following the procedures described in Section 8.4. Results for cell cycle distribution in HL-60 cells, COLO205 cells and AGS cells are provided in Table 5, Table 6 and Table 7, respectively. […] In HL-60 cells, G2/M arrest predominated in cells treated with 6N PMF concentrations ≧5 μM and with 1N PMF concentrations ≧25 μM.
as §6, §7

[6] = system: AGS cells; assay: Cell cycle distribution by flow cytometry; details: for Cell Cycle Distribution G0/G1 / Cell Cycle Distribution G2/M / Cell Cycle Distribution S: 24 h, Table 11
Protocol: as §5, §8, §6, §7

COc1c(OC)c(OC)c2c(=O)cc(-c3ccc(O)c(O)c3)oc2c1OC [H, 3′,4′-dihydroxy-5,6,7,8-tetramethoxyflavone]
IC50 ([1]; HL-60, read-out: Antiproliferative IC50): 71.2 ± 1.93 µM
IC50 ([2]; COLO 205, read-out: Antiproliferative IC50): 90.1 ± 11.9 µM
IC50 ([3]; AGS): 69.3 ± 4.23 µM
Cell Cycle Distribution G0/G1 ([4]; 5 μM): 63.21 ± 1.82
Cell Cycle Distribution G2/M ([4]; 5 μM): 7.53 ± 0.81
Cell Cycle Distribution S ([4]; 5 μM): 29.26 ± 2.63
Cell Cycle Distribution G0/G1 ([4]; 10 μM): 64.87 ± 0.74
Cell Cycle Distribution G2/M ([4]; 10 μM): 8.19 ± 0.09
Cell Cycle Distribution S ([4]; 10 μM): 26.95 ± 0.64
Cell Cycle Distribution G0/G1 ([4]; 25 μM): 63.87 ± 0.92
Cell Cycle Distribution G2/M ([4]; 25 μM): 8.45 ± 0.46
Cell Cycle Distribution S ([4]; 25 μM): 27.68 ± 1.37
Cell Cycle Distribution G0/G1 ([4]; 50 μM): 63.10 ± 0.16
Cell Cycle Distribution G2/M ([4]; 50 μM): 7.94 ± 0.84
Cell Cycle Distribution S ([4]; 50 μM): 28.98 ± 0.69
Cell Cycle Distribution G0/G1 ([4]; 100 μM): 61.66 ± 1.44
Cell Cycle Distribution G2/M ([4]; 100 μM): 4.98 ± 1.55
Cell Cycle Distribution S ([4]; 100 μM): 33.37 ± 0.11
Cell Cycle Distribution G0/G1 ([5]; 5 μM): 67.26 ± 0.45
Cell Cycle Distribution G2/M ([5]; 5 μM): 8.17 ± 0.60
Cell Cycle Distribution S ([5]; 5 μM): 24.58 ± 0.15
Cell Cycle Distribution G0/G1 ([5]; 10 μM): 66.67 ± 0.16
Cell Cycle Distribution G2/M ([5]; 10 μM): 6.18 ± 0.63
Cell Cycle Distribution S ([5]; 10 μM): 27.16 ± 0.46
Cell Cycle Distribution G0/G1 ([5]; 25 μM): 66.99 ± 1.32
Cell Cycle Distribution G2/M ([5]; 25 μM): 6.89 ± 0.21
Cell Cycle Distribution S ([5]; 25 μM): 26.13 ± 1.11
Cell Cycle Distribution G0/G1 ([5]; 50 μM): 64.49 ± 1.00
Cell Cycle Distribution G2/M ([5]; 50 μM): 8.94 ± 1.12
Cell Cycle Distribution S ([5]; 50 μM): 26.57 ± 2.12
Cell Cycle Distribution G0/G1 ([5]; 100 μM): 66.50 ± 0.06
Cell Cycle Distribution G2/M ([5]; 100 μM): 6.98 ± 0.02
Cell Cycle Distribution S ([5]; 100 μM): 26.53 ± 0.08
Cell Cycle Distribution G0/G1 ([6]; 5 μM): 62.78 ± 2.93
Cell Cycle Distribution G2/M ([6]; 5 μM): 16.57 ± 1.93
Cell Cycle Distribution S ([6]; 5 μM): 20.66 ± 1.00
Cell Cycle Distribution G0/G1 ([6]; 10 μM): 61.72 ± 2.76
Cell Cycle Distribution G2/M ([6]; 10 μM): 17.39 ± 2.76
Cell Cycle Distribution S ([6]; 10 μM): 20.89 ± 0.00
Cell Cycle Distribution G0/G1 ([6]; 25 μM): 63.91 ± 0.92
Cell Cycle Distribution G2/M ([6]; 25 μM): 16.82 ± 1.04
Cell Cycle Distribution S ([6]; 25 μM): 19.28 ± 0.12
Cell Cycle Distribution G0/G1 ([6]; 50 μM): 63.96 ± 1.65
Cell Cycle Distribution G2/M ([6]; 50 μM): 16.74 ± 2.15
Cell Cycle Distribution S ([6]; 50 μM): 19.31 ± 0.51
Cell Cycle Distribution G0/G1 ([6]; 100 μM): 68.04 ± 1.34
Cell Cycle Distribution G2/M ([6]; 100 μM): 22.69 ± 0.13
Cell Cycle Distribution S ([6]; 100 μM): 9.27 ± 1.46

COc1ccc(-c2cc(=O)c3c(O)c(OC)c(OC)c(OC)c3o2)cc1O [Compound K, 5,3′-dihydroxy-6,7,8,4′-tetramethoxyflavone]
IC50 ([1]; HL-60 cells, read-out: Antiproliferative IC50): 10 µM
IC50 ([2]; COLO 205, COLO205 cells, read-out: Antiproliferative IC50): 11.2 µM
IC50 ([3]; AGS cells): 9.61 µM
G2/M cell cycle arrest, in words [4]: strongly potentiated the G2/M cell cycle arrest
Cell Cycle Distribution G0/G1 ([4]; 5 μM): 60.57 ± 0.04
Cell Cycle Distribution G2/M ([4]; 5 μM): 9.87 ± 0.78
Cell Cycle Distribution S ([4]; 5 μM): 29.71 ± 0.94
Cell Cycle Distribution G0/G1 ([4]; 10 μM): 57.94 ± 0.50
Cell Cycle Distribution G2/M ([4]; 10 μM): 11.52 ± 0.27
Cell Cycle Distribution S ([4]; 10 μM): 30.55 ± 0.77
Cell Cycle Distribution G0/G1 ([4]; 25 μM): 50.58 ± 1.35
Cell Cycle Distribution G2/M ([4]; 25 μM): 12.49 ± 0.09
Cell Cycle Distribution S ([4]; 25 μM): 36.94 ± 1.45
Cell Cycle Distribution G0/G1 ([4]; 50 μM): 64.13 ± 0.83
Cell Cycle Distribution G2/M ([4]; 50 μM): 13.14 ± 0.47
Cell Cycle Distribution S ([4]; 50 μM): 22.73 ± 0.37
Cell Cycle Distribution G0/G1 ([4]; 100 μM): 47.16 ± 2.59
Cell Cycle Distribution G2/M ([4]; 100 μM): 36.12 ± 4.37
Cell Cycle Distribution S ([4]; 100 μM): 16.72 ± 1.73
G2/M cell cycle arrest, in words [5]: strongly potentiated the G2/M cell cycle arrest
Cell Cycle Distribution G0/G1 ([5]; 5 μM): 57.68 ± 0.42
Cell Cycle Distribution G2/M ([5]; 5 μM): 7.08 ± 0.20
Cell Cycle Distribution S ([5]; 5 μM): 34.52 ± 0.21
Cell Cycle Distribution G0/G1 ([5]; 10 μM): 65.81 ± 0.83
Cell Cycle Distribution G2/M ([5]; 10 μM): 1.75 ± 0.47
Cell Cycle Distribution S ([5]; 10 μM): 32.44 ± 2.28
Cell Cycle Distribution G0/G1 ([5]; 25 μM): 66.63 ± 1.51
Cell Cycle Distribution G2/M ([5]; 25 μM): 13.31 ± 1.91
Cell Cycle Distribution S ([5]; 25 μM): 20.06 ± 0.40
Cell Cycle Distribution G0/G1 ([5]; 50 μM): 42.30 ± 1.12
Cell Cycle Distribution G2/M ([5]; 50 μM): 23.42 ± 0.83
Cell Cycle Distribution S ([5]; 50 μM): 34.29 ± 0.29
Cell Cycle Distribution G0/G1 ([5]; 100 μM): 43.58 ± 2.29
Cell Cycle Distribution G2/M ([5]; 100 μM): 22.85 ± 2.96
Cell Cycle Distribution S ([5]; 100 μM): 33.57 ± 0.67
G2/M cell cycle arrest, in words [6]: strongly potentiated the G2/M cell cycle arrest
Cell Cycle Distribution G0/G1 ([6]; 5 μM): 51.75 ± 0.73
Cell Cycle Distribution G2/M ([6]; 5 μM): 13.65 ± 0.18
Cell Cycle Distribution S ([6]; 5 μM): 34.61 ± 0.91
Cell Cycle Distribution G0/G1 ([6]; 10 μM): 22.20 ± 1.56
Cell Cycle Distribution G2/M ([6]; 10 μM): 48.12 ± 1.35
Cell Cycle Distribution S ([6]; 10 μM): 26.69 ± 0.91
Cell Cycle Distribution G0/G1 ([6]; 25 μM): 42.63 ± 0.05
Cell Cycle Distribution G2/M ([6]; 25 μM): 34.57 ± 0.62
Cell Cycle Distribution S ([6]; 25 μM): 22.81 ± 0.51
Cell Cycle Distribution G0/G1 ([6]; 50 μM): 43.90 ± 2.37
Cell Cycle Distribution G2/M ([6]; 50 μM): 35.67 ± 2.29
Cell Cycle Distribution S ([6]; 50 μM): 20.44 ± 0.08
Cell Cycle Distribution G0/G1 ([6]; 100 μM): 50.77 ± 1.01
Cell Cycle Distribution G2/M ([6]; 100 μM): 31.20 ± 0.43
Cell Cycle Distribution S ([6]; 100 μM): 18.04 ± 1.45
